Measured values reported in patent US6764768B2, “Controlled release composition” (Arch Development Corporation, priority 2001, dated 2004).

Columns and labels:
[1] = system: streptavidin; experiment: SPR measurement of streptavidin association with the biotin-presenting monolayer; type: binding; details: biotin 140 μM mixed with streptavidin before introduction to the SAM
From the text: The following sequence was used to measure the association of proteins to the monolayers: buffer (phosphate buffered saline, pH 7.4) was flowed over the monolayer for three minutes to establish a baseline; a solution of protein in the same buffer was flowed over the surface for eight minutes to observe binding; buffer was again flowed for four minutes to quantitate the amount of protein that remained bound. […] (SPR measures the angle of light (θ) reflected from the backside of the gold substrate that is a minimum in intensity. Changes in this angle (Δθ) are linearly related to the index of refraction of the solution above the surface and therefore to the density of adsorbed protein (Δθof 0.10°=1 ng/mm^2). Experiments show a change in θ immediately following protein injection due to differences in refractive index between the two solutions.) The change in resonance angle (Δθ) after streptavidin was flowed over the substrate corresponds to a final protein density of 1.1 ng/mm^2. The protein remained irreversibly bound because of the high affinity of the streptavidin-biotin complex.
Electrochemistry was performed in buffered water (PBS, pH 7.4) using the gold substrate as the working electrode, a platinum wire as the counter electrode, and a Ag/AgCl/KCl reference electrode—prior to mounting the substrate in a cartridge for analysis by SPR. […]

[2] = system: Swiss 3T3 fibroblast cells; experiment: Adhesion and electrically or peptide-triggered release of cells on patterned RGD monolayer; type: cell-based
Protocol: The substrate was patterned into two regions that each presented the RGD peptide at a density of less than 0.1% mixed with tri(ethylene glycol) groups. The pattern was formed by applying an alkanethiol solution (corresponding to FIG. 5A) for 5 min to a gold-coated glass substrate, half of which was blocked with a polydimethylsiloxane mask. Following rinsing, the mask was removed, and the substrate was incubated in a solution of a second alkanethiol (corresponding to FIG. 5B) for 6 h. In all cases, the monolayers were formed from ethanolic solutions containing a mixture of an alkanethiol substituted with tri(ethylene glycol) and an alkanethiol substituted with either RGD or the RGD containing alkanethiol of the present invention, in a ratio of 999: 1. The two regions differed only in the linkage used to tether the peptides to the monolayer (C. Roberts, C. S. Chen, M. Mrksich, V. Martichonok, D. E. Ingber, G. M. Whitesides, J. Am. Chem. Soc. 1998, 120, 6548-6555; and B. T. Houseman, M. Mrksich, J. Org. Chem. 1998, 63, 7552-7555).
This substrate was placed into cell culture media and a suspension of Swiss 3T3 fibroblast cells was added. The Swiss Albino 3T3 cells (ATCC, Rockville, Md.) were grown in Dulbecco's Modified Eagle Medium (DMEM) containing 10% fetal bovine serum and penicillin/streptomycin. All cultures were maintained at 37° C. in a humidified 10% CO2 atmosphere. […]

## O=C(O)CCCC[C@@H]1SC[C@@H]2NC(=O)N[C@@H]21 [biotin]
[1]
  binding of streptavidin to the SAM when streptavidin was mixed with biotin: no binding of the protein to the surface

## Gly-Arg-Gly-Asp-Ser (GRGDS; printed: Gly-Arg-Gly-Asp-Ser)
[2]; 2 mM in fresh media, 37° C. for 20 minutes, after electrical treatment
  cells released from the surface by soluble peptide: greater than 95%
[2]; patterned substrate, both regions, prior to electrical treatment
  detachment of cells by soluble peptide prior to electrical treatment: near complete detachment of cells from both regions
